Laboratory results published in the Kinase Knowledgebase extract (Sharma et al. 2016).

Key:
PIK3CA (human) = PIK3CA (human) (UniProt P42336); assay: Assessment of PIK3CA Kinase Activity
PIK3CG (human) = PIK3CG (human) (UniProt P48736); assay: Assessment of PIK3CG Kinase Activity
PIK3CD (Human) = PIK3CD (Human) (UniProt O00329); assay: Assessment of PIK3CD Kinase Activity
PIK3CB (Human) = PIK3CB (Human) (UniProt P42338); assay: Assessment of PIK3CB Kinase Activity
Sequence of PIK3CB (Human) (P42338 whole entry, looked up): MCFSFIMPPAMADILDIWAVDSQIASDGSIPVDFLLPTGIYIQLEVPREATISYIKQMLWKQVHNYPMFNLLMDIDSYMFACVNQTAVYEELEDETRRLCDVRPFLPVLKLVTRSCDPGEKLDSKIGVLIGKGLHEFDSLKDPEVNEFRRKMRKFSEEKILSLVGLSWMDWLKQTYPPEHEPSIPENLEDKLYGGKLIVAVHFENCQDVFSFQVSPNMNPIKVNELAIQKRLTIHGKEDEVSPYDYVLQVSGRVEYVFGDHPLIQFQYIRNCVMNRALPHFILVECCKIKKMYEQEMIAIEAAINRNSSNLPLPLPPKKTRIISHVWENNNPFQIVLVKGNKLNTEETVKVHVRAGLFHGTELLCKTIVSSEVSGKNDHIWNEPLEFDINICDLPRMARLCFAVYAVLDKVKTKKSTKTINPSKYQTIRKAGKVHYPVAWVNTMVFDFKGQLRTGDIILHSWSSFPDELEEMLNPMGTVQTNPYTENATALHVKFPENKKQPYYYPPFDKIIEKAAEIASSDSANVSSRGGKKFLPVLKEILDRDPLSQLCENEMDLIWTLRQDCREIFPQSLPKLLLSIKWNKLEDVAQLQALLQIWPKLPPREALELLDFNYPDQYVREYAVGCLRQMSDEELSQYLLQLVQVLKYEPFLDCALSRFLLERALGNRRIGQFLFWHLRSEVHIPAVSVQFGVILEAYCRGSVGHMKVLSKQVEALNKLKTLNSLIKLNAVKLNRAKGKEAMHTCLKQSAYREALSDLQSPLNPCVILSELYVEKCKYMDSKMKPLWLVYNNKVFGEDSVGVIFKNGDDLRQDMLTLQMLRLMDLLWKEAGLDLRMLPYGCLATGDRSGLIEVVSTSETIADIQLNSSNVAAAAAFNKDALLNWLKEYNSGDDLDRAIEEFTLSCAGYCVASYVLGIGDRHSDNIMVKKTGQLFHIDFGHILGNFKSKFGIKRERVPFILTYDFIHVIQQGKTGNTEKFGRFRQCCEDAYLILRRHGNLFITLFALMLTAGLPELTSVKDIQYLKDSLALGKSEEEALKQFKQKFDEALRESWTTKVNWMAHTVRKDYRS

Sequence of PIK3CG (human) (P48736 whole entry, looked up): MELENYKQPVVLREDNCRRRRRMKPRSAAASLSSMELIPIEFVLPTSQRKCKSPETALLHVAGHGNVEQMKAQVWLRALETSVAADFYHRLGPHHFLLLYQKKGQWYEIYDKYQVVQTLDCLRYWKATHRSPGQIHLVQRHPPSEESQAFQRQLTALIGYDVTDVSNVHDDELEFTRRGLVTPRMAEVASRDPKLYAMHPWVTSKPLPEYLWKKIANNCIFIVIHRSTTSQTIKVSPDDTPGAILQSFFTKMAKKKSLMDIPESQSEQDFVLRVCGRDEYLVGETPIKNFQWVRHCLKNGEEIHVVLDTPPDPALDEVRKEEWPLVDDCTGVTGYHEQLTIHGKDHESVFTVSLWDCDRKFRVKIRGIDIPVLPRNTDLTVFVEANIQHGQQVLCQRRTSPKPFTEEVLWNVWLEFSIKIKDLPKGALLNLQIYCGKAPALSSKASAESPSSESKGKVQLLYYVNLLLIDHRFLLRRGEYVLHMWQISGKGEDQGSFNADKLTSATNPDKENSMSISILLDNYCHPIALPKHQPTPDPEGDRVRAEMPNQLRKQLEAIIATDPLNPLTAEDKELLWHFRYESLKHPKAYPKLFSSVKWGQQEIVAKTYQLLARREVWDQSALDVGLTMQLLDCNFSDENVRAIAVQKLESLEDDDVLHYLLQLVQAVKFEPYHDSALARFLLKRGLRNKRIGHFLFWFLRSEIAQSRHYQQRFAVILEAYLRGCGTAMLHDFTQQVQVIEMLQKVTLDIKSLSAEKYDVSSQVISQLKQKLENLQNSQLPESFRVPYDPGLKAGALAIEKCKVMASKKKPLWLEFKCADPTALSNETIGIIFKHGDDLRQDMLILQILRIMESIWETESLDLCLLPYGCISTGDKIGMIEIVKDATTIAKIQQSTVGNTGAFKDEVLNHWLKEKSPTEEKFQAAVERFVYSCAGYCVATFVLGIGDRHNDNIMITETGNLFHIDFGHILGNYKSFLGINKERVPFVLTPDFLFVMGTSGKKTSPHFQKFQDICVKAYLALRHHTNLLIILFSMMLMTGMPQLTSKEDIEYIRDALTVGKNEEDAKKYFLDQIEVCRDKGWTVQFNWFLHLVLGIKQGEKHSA
Sequence of PIK3CD (Human) (O00329 whole entry, looked up): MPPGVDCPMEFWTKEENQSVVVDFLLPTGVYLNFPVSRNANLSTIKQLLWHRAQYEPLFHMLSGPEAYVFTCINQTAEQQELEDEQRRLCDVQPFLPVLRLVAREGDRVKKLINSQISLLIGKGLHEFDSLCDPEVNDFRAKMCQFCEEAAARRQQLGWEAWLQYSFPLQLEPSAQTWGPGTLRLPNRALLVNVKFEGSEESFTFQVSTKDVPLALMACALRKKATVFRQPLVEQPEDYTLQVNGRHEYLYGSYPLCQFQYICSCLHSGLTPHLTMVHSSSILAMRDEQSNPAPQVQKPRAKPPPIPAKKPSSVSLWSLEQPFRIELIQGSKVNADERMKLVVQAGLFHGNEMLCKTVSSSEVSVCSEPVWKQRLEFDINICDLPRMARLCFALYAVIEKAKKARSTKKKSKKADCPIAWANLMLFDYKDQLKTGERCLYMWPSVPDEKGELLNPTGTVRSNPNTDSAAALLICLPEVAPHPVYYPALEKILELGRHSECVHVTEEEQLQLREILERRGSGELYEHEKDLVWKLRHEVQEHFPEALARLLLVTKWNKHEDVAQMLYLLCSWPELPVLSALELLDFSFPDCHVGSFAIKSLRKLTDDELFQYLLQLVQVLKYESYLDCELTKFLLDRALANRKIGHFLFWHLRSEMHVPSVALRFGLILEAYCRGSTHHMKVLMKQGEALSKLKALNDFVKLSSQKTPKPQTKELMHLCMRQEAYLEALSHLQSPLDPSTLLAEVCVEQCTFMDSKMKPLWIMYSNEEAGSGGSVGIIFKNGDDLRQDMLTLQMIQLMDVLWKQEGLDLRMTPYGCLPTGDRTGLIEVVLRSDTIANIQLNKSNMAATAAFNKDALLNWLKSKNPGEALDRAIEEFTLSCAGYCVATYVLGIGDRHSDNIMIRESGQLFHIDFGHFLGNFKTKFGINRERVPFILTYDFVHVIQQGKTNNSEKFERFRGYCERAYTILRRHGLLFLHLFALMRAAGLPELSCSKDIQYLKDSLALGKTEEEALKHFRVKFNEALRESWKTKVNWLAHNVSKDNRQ
Sequence of PIK3CA (human) (P42336 whole entry, looked up): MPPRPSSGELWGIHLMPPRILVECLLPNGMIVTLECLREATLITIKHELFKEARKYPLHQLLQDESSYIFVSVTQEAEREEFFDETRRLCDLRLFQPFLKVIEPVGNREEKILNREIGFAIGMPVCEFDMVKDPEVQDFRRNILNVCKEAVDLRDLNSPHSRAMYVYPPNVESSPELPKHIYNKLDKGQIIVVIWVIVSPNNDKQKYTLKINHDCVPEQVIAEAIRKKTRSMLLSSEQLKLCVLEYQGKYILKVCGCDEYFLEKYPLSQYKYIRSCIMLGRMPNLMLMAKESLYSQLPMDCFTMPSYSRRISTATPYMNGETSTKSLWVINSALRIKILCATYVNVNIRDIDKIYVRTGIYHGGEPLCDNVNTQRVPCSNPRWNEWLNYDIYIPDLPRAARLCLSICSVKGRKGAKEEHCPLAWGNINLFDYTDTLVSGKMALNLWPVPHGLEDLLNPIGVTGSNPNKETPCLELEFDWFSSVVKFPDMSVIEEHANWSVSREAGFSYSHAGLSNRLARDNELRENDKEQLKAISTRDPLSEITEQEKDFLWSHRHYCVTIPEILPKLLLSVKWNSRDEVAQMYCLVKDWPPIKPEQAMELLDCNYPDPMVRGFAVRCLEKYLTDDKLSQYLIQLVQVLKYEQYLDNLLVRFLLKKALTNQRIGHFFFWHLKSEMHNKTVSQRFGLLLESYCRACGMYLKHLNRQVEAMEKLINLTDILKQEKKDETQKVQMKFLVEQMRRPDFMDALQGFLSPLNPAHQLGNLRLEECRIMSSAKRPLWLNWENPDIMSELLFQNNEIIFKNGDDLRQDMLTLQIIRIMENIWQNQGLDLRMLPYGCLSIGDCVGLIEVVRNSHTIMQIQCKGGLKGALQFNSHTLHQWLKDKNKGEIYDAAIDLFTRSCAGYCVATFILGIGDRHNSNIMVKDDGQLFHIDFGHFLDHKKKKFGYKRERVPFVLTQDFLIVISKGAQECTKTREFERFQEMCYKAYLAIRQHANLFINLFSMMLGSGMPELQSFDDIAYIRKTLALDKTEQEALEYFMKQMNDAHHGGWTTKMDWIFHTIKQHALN

Row | Compound | IC50 (PIK3CA (human)) [nM] | IC50 (PIK3CG (human)) [nM] | IC50 (PIK3CD (Human)) [nM] | IC50 (PIK3CB (Human)) [nM]
1 | c1ccc(-c2cc3nc(-c4cccc5[nH]ncc45)nc(N4CCOCC4)c3o2)cc1 | < 1000 | > 100 | > 100 | < 100
2 | CS(=O)(=O)c1cccc(-c2cc3nc(-c4cccc5[nH]ncc45)nc(N4CCOCC4)c3s2)c1 | < 1000 | < 100 | > 100 | < 100
3 | C[C@H](O)CNCc1cc2nc(-c3cccc4[nH]ncc34)nc(N3CCOCC3)c2s1 | < 1000 | < 100 | > 100 | > 100
4 | c1cc2cc(-c3nc(N4CCOCC4)c4sc(-c5ccc(N6CCOCC6)nc5)cc4n3)cnc2[nH]1 | < 1000 | < 100 | < 100 | < 100
5 | CS(=O)(=O)c1cccc(C(=O)NCc2cc3nc(-c4cccc5[nH]ncc45)nc(N4CCOCC4)c3s2)c1 | < 1000 | < 100 | > 100 | < 100
6 | OC1(c2cc3nc(-c4cccc5[nH]ncc45)nc(N4CCOCC4)c3s2)CCC1 | < 1000 | < 100 | > 100 | > 100
7 | CC(C)(O)c1cc2nc(-c3cccc4[nH]ccc34)nc(N3CCOCC3)c2s1 | < 1000 | < 100 | > 100 | < 100
8 | O=C(NCc1cc2nc(-c3cccc4[nH]ncc34)nc(N3CCOCC3)c2s1)N1CCOCC1 | < 1000 | < 100 | > 100 | > 100
9 | c1cc(-c2nc(N3CCOCC3)c3sc(-c4cn[nH]c4)cc3n2)c2cn[nH]c2c1 | < 1000 | < 100 | > 100 | > 100
10 | O=C(NCCN1CCCCC1)c1cc2nc(-c3cccc4[nH]ncc34)nc(N3CCOCC3)c2s1 | < 1000 | < 100 | > 100 | > 100
11 | C[C@H](O)CNC(=O)c1cccc(-c2cc3nc(-c4cccc5[nH]ncc45)nc(N4CCOCC4)c3s2)c1 | < 1000 | < 100 | > 100 | < 100
12 | CNC(=O)c1cccc(-c2cc3nc(-c4cccc5[nH]ncc45)nc(N4CCOCC4)c3s2)c1 | < 1000 | < 100 | > 100 | < 100
13 | CC(C)(NC(=O)c1ccccc1)c1cc2nc(-c3cccc4[nH]ncc34)nc(N3CCOCC3)c2s1 | < 1000 | < 100 | > 100 | < 100
14 | CN(Cc1cc2c(N3CCOCC3)nc(-c3cnc4[nH]ccc4c3)nc2s1)S(C)(=O)=O | < 1000 | < 100 | < 100 | < 100
15 | OCc1cccc(-c2cc3nc(-c4cccc5[nH]ncc45)nc(N4CCOCC4)c3s2)c1 | < 1000 | < 100 | > 100 | < 100
16 | COC/C=C/c1cc2nc(-c3cccc4[nH]ncc34)nc(N3CCOCC3)c2s1 | < 1000 | < 100 | > 100 | < 100
17 | O=S(=O)(Nc1cccc(O)c1)c1cc2nc(-c3cccc4[nH]ncc34)nc(N3CCOCC3)c2s1 | < 1000 | < 100 | > 100 | < 100
18 | c1cc(-c2nc(N3CCOCC3)c3sc(Cn4ccnc4)cc3n2)c2cn[nH]c2c1 | < 1000 | < 100 | > 100 | > 100

Row | Compound | IC50 (PIK3CA (human)) [nM] | IC50 (PIK3CG (human)) [nM] | IC50 (PIK3CD (Human)) [nM] | IC50 (PIK3CB (Human)) [nM]
19 | O=C(O)c1cccc(-c2cc3nc(-c4cccc5[nH]ncc45)nc(N4CCOCC4)c3s2)c1 | < 1000 | < 100 | > 100 | < 100
20 | Cc1c(-c2cccc(S(C)(=O)=O)c2)sc2c(N3CCOCC3)nc(-c3cccc4[nH]ncc34)nc12 | < 1000 | < 100 | < 100 | < 100
21 | CC(C)(O)c1cc2nc(-c3cccc4[nH]ncc34)nc(N3CCOCC3)c2s1 | < 1000 | < 100 | > 100 | < 100
22 | CC(C)(O)c1cc2nc(-c3cnc4[nH]ccc4c3)nc(N3CCOCC3)c2s1 | < 1000 | < 100 | > 100 | < 100
23 | CN(Cc1cc2nc(-c3cccc4[nH]ncc34)nc(N3CCOCC3)c2s1)C(=O)c1ccccc1 | < 1000 | > 100 | > 100 | > 100
24 | NCC(=O)Nc1cccc(-c2cc3nc(-c4cccc5[nH]ncc45)nc(N4CCOCC4)c3s2)c1 | < 1000 | > 100 | > 100 | < 100
25 | O=C(NOCC1CC1)c1cc2nc(-c3cccc4[nH]ncc34)nc(N3CCOCC3)c2s1 | < 1000 | < 100 | > 100 | > 100
26 | Cc1c(-c2cccc(S(C)(=O)=O)c2)sc2c(N3CCOCC3)nc(-c3cnc4[nH]ccc4c3)nc12 | < 1000 | < 100 | < 100 | < 100
27 | CCNC(=O)c1cc2nc(-c3cccc4[nH]ncc34)nc(N3CCOCC3)c2s1 | < 1000 | > 100 | > 100 | > 100
28 | COc1ccc(NCc2cc3nc(-c4cccc5[nH]ncc45)nc(N4CCOCC4)c3s2)cn1 | < 1000 | < 100 | > 100 | > 100
29 | CN(C)C(=O)c1cc2nc(-c3cccc4[nH]ncc34)nc(N3CCOCC3)c2s1 | < 1000 | < 100 | > 100 | > 100
30 | OCCNc1cc2nc(-c3cccc4[nH]ncc34)nc(N3CCOCC3)c2s1 | < 1000 | < 100 | > 100 | > 100
31 | CS(=O)(=O)c1cccc(-c2cc3nc(-c4cnc5[nH]ccc5c4)nc(N4CCOCC4)c3s2)c1 | < 1000 | < 100 | < 100 | < 100
32 | CC(=O)Nc1cccc(-c2cc3nc(-c4cccc5[nH]ncc45)nc(N4CCOCC4)c3s2)c1 | < 1000 | < 100 | > 100 | < 100
33 | CN(C)Cc1cc2nc(-c3cccc4[nH]ncc34)nc(N3CCOCC3)c2s1 | < 1000 | < 100 | > 100 | < 100
34 | O=S(=O)(NCCN1CCCCC1)c1cc2nc(-c3cccc4[nH]ncc34)nc(N3CCOCC3)c2s1 | < 1000 | < 100 | > 100 | < 100
35 | Nc1nc(-c2cc3nc(-c4cnc5[nH]ccc5c4)nc(N4CCOCC4)c3s2)cs1 | < 1000 | < 100 | < 100 | < 100
36 | CS(=O)(=O)N1CCC(C(O)c2cc3nc(-c4cccc5[nH]ncc45)nc(N4CCOCC4)c3s2)CC1 (centres undefined) | < 1000 | < 100 | > 100 | > 100
